In patent US4206125A, “5-[2-[(2,3-Dihydro-1,4-benzodioxan-2-ylmethyl)amino]-1-hydrox yethyl]-2-hydroxybenzoic acid derivatives” (Richardson-Merrell Inc., priority 1979, dated 1980):

Key:
β-Adrenergic receptor = molecular target: T1, β-Adrenergic receptor (Cavia porcellus, UniProt H0W3H1); assay: β-Adrenergic receptor blocking activity, isolated guinea pig atria, isoproterenol as agonist; assay type: cell-based; details: increase in rate, read-out: pA2 value (β-adrenergic receptor blocking activity) (converted)
T1 construct: isolated guinea pig atria preparation; from tissue; host or cells: isolated guinea pig atria
Procedure: β-Adrenergic receptor blocking activity is determined in vitro by performing cumulative dose-response experiments in the isolated guinea pig atria preparation using isoproterenol as the agonist. The response (increase in rate) of the guinea pig atria preparation in the presence of logarithmically increasing concentrations of the compounds being tested are expressed as percent of the maximal attainable response. Relative antagonistic potency is expressed as a pA2 value, as defined above.

[1] = test system: systolic blood pressure of spontaneously hypertensive rats (SHR); assay: Antihypertensive activity in spontaneously hypertensive rats (SHR); assay type: in vivo, rat; details: SHR Okomoto-Aoki strain; oral dose of 50 mg/kg; one hour following administration
Procedure: Antihypertensive activity is determined in spontaneously hypertensive rats (SHR) of the Okomoto-Aoki strain. Systolic blood pressure of the SHR is measured from the caudal artery by means of an indirect method utilizing a photocell transducer/trail cuff occluder system. Time response relationships are determined for each compound following an oral dose of 50 mg/kg. Data are expressed as mm of Hg decrease from control values. Statistical significance is determined using a 2 tailed "t" test comparing drug treatment response values to those obtained from concurrent vehicle treated animals. Under these conditions the compound 5-[2-[(2,3-dihydro-1,4-benzodioxan-2-ylmethyl)amino]-1-hydroxyethyl]-2-hydroxybenzamide lowered blood pressure by 24 mm of Hg one hour following administration of the drug substance.

α-Adrenergic receptor = α-Adrenergic receptor blocking activity, isolated rabbit aortic strip, norepinephrine as agonist; assay type: cell-based; details: contractile response
Procedure: α-Adrenergic receptor blocking activity is determined in vitro by performing cumulative dose-response experiments in the isolated rabbit aortic strip preparation using norepinephrine as the agonist. The contractile response of the rabbit strip preparation in the presence of logarithmically increasing concentrations of the compounds being tested are expressed as percent of the maximal attainable response. Relative antagonistic potency is expressed as a pA2 value.

T1 sequence (H0W3H1 1-470): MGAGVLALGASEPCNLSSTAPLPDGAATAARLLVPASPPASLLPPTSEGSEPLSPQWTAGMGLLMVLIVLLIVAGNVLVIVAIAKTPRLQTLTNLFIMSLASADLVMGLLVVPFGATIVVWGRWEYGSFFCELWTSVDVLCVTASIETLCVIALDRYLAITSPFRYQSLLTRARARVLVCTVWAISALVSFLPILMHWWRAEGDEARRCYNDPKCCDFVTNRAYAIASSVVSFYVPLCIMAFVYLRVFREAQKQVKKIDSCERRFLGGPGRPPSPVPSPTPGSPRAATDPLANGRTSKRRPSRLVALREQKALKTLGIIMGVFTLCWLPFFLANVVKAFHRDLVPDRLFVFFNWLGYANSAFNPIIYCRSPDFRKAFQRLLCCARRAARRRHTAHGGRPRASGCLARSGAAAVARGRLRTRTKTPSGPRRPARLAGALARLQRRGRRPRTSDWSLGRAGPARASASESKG

- Kb (β-Adrenergic receptor): 1450 nM
Structure (SMILES): NC(=O)c1cc(C(O)CNCC2COc3ccccc3O2)ccc1O (stereo not drawn) [5-[2-[(2,3-dihydro-1,4-benzodioxan-2-ylmethyl)amino]-1-hydroxyethyl]-2-hydroxybenzamide]
- systolic blood pressure decrease from control values [1]: 24 mm of Hg
- pA2 value (α-adrenergic receptor blocking activity) (α-Adrenergic receptor): 6.20
